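Where inhibition never reached the appropriate level, the endpoint shown equals the highest concentration tested. Otherwise, values were interpolated linearly from a five-concentration, 48-hour dose response in 96-well plates. The concentration for 50% growth inhibition is given as GI50.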 Activity calls are given as the source filed them. Cut-off read from the data, not from the text of the source: active = GI50 up to about 1.1 µM and inactive = higher. Some results are limits rather than exact numbers.

Test in all cases: NCI anticancer screen, dose series, 48 h
Assay [1] concerns A498.
The test system of assay [2] is ACHN.
Assay [3] relates to DU-145.
The test system of assay [4] is HL-60.
Assay [5] has as its system KM12.
The test system of assay [6] is LOX IMVI.
The subject of assay [7] is MDA-MB-435.
The subject of assay [8] is MDA-N.
Assay [9] has as its system NCI-H226.
For assay [10], the system named is NCI-H522.
For assay [11], the system named is NCI/ADR-RES.
Assay [12] deals with OVCAR-3.
Assay [13] deals with RXF 393.
The test system of assay [14] is SF-268.
In assay [15] the test system is SF-295.
Assay [16] has as its system SK-MEL-28.
Assay [17] has as its system SK-OV-3.
Assay [18] concerns SNB-75.
Assay [19] has as its system TK-10.
Assay [20] relates to UACC-62.

Consider `COc1ccc(/C=C/c2nsc(/C=C/c3ccc(OC)cc3)n2)cc1`, for which the GI50 was > 100 µM (inactive) in assay [1]; > 100 µM (inactive) in [2]; > 100 µM (inactive) in assay [3]; 24.8 µM (inactive) in [4]; > 100 µM (inactive) in assay [5]; 55.1 µM (inactive) in [6]. Further, the GI50 in assay [7] was 85.1 µM (inactive); in assay [8], > 100 µM (inactive); in assay [9], > 100 µM (inactive); in [10] it was 39.6 µM (inactive); in assay [11], > 100 µM (inactive); in assay [12], > 100 µM (inactive). Besides, the GI50 in assay [13], in assay [14], in assay [15], in assay [16], in assay [17] and in assay [18] was > 100 µM (inactive) each time. The GI50 in assay [19] is > 100 µM (inactive).

Regarding `CN(C)CCNC(=O)c1cccc2ccc(-c3ccc(O)cc3)nc12`, the GI50 is 2.64 µM (inactive) in assay [1]; 1.37 µM (inactive) in assay [2]; 2.33 µM (inactive) in [3]; 0.847 µM (active) in assay [4]; 4.54 µM (inactive) in assay [5]; 0.743 µM (active) in [6]. Also, the GI50 was 3.74 µM (inactive) in [7]; 2.39 µM (inactive) in assay [8]; 1.93 µM (inactive) in assay [9]; 1.36 µM (inactive) in assay [10]; 5.11 µM (inactive) in [11]; 3.13 µM (inactive) in [12]. Besides, the GI50 in [13] is 4.72 µM (inactive); in assay [14] it was 3.92 µM (inactive); in [15] it was 2.13 µM (inactive); in assay [16] it was 3.15 µM (inactive); in assay [17], 3.01 µM (inactive); in [18] it was 2.74 µM (inactive). Also, the GI50 was 2.94 µM (inactive) in [19] and 1.39 µM (inactive) in assay [20].

Turning to `Nc1nc(Nc2ccccc2)c2[nH]cnc2n1`, the GI50 in assay [1] is 20.3 µM (inactive); in assay [2], 41.9 µM (inactive); in assay [3] it was 77.3 µM (inactive); in assay [4] it was 37.3 µM (inactive); in assay [5], 35.6 µM (inactive); in [6], 77.6 µM (inactive). The GI50 is > 100 µM (inactive) in assay [7]; 47.8 µM (inactive) in assay [8]; 40.6 µM (inactive) in assay [9]; 65.5 µM (inactive) in [10]; > 100 µM (inactive) in assay [11]; 89.9 µM (inactive) in [12]. Moreover, the GI50 is > 100 µM (inactive) in assay [13]; > 100 µM (inactive) in [15]; > 100 µM (inactive) in [16]; 84.5 µM (inactive) in assay [17]; 9.57 µM (inactive) in [18]; 46.9 µM (inactive) in [19]. Moreover, in assay [20], the GI50 is 33.3 µM (inactive).

As to `CC1=NN2C=Nc3c(c(-c4ccc(Cl)cc4)cn3-c3ccc(C)cc3)C2N1` (configuration not stated), the GI50 in [1], in assay [2], in assay [3], in [4], in assay [6] and in assay [7] was > 100 µM (inactive) in each case. Also, the GI50 was > 100 µM (inactive) in [8]; > 100 µM (inactive) in assay [9]; > 100 µM (inactive) in assay [10]; 55.8 µM (inactive) in assay [11]; > 100 µM (inactive) in assay [12]; 42.5 µM (inactive) in [13]. Also, the GI50 in assay [14] was 71.1 µM (inactive); in [15], 39.3 µM (inactive); in [16], > 100 µM (inactive); in assay [17] it was 61.9 µM (inactive); in [18] it was 30.5 µM (inactive); in [19] it was 42.8 µM (inactive). For the same molecule, the GI50 in [20] was 61 µM (inactive).
